In data set [1] the test system is Nocardia asteroides (clinical isolate). The data set can be described thus: Cell viability IC50 screen. The settings on record: read-out: IC50 without a β-lactam, Nast.
The subject of data set [2] is Mycobacterium chelonae (clinical isolate). As to the kind of experiment: MIC shift, M. chelonae.
Data set [3] relates to Mycobacterium smegmatis MC^2155 WT. As to the kind of experiment: Cell viability IC50 screen. The settings on record: for potentiation of IPA by isoniazid, Msmeg: isoniazid at four times less than the lethal concentration; for potentiation with a sub-MIC50 dose of meropenem to inhibit Msmeg growth: meropenem 1.25μg/mL.
The subject of data set [4] is Mycobacterium abscessus PM3386 Δbla. The data set is classed as cell-based. The settings on record: GSK690693 50 μM.
For data set [5], the system named is Mycobacterium tuberculosis H37Rv ΔRD1 ΔpanCD strain mc^26030. The data set is classed as cell-based. The settings on record: for activity against Mtb alone: auxotrophic Mtb H37Rv; for activity against Mtb with sub-MIC50 dose of meropenem: meropenem 1μg/mL with clavulonic acid.
The conditions of data set [6]: in vivo; cited from earlier work.
The next data set deals with M. marinum. The data set can be described thus: Growth inhibition and β-lactam potentiation, M. marinum. The class given is cell-based, Mycobacterium marinum.
Another data set addresses PknB 1–331 (Mycobacterium tuberculosis, UniProt P9WI81). The class given is biochemical. The conditions noted are these: at concentrations tested.

Molecules are shown by their SMILES.

Chain of PknB 1–331 (P9WI81 1-331): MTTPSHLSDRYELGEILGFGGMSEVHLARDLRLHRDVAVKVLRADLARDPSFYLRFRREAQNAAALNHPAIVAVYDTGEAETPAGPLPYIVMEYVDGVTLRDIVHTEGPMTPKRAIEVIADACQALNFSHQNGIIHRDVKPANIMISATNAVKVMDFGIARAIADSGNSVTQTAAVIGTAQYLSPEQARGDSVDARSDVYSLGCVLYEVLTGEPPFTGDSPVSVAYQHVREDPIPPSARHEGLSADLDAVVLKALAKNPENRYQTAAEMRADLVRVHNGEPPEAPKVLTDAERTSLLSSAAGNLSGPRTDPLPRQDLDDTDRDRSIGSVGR

With `CCn1c(-c2nonc2N)nc2c(C#CC(C)(C)O)ncc(OCC3CCNCC3)c21` [GSK554170A], the IC50 in data set [1] lay within 24 to 100 µM.

With `CCn1c(-c2nonc2N)nc2c(C#CC(C)(C)O)ncc(OC[C@H]3CCCNC3)c21` [GSK690693, 4-(2-(4-amino-1,2,5-oxadiazol-3-yl)-1-ethyl-7-{[(3S)-3-piperidinylmethyl]oxy}−1H-imidazo[4,5-c]pyridin-4-yl)-2-methyl-3-butyn-2-ol], in data set [2] (with 8 μg/mL clavulanate), the “potentiation of meropenem, Mche” value is “two-fold”. Further, in data set [2] (without clavulanate), the “potentiation of meropenem, Mche” value is “did not see any potentiation”. Moreover, in data set [3], the “potentiation of IPA by isoniazid, Msmeg” value is listed as “did not potentiate” and the “potentiation with a sub-MIC50 dose of meropenem to inhibit Msmeg growth” value is on record as “able to potentiate”. Besides, the “potentiation of kanamycin, Mab” value in data set [4] is reported as “no effect”. In addition, the half-inhibitory concentration (IC50) in data set [1] fell in the range of 24 to 100 µM. In data set [5], the “activity against Mtb alone” value was “not active” and the “activity against Mtb with sub-MIC50 dose of meropenem” value was “not active”. For the same compound, the “side-effects in phase I clinical trials” value in data set [6] is “only moderate side-effects”. For the same compound, the “potentiation of β-lactams, M. marinum” value in the data set on M. marinum (Fig. S7C) is given as “does not potentiate”. In the data set with M. marinum (Fig. S7D), the “activity alone, M. marinum growth” value is given as “effective on its own”.

In the case of `CCn1c(-c2nonc2N)nc2c(C#CC(C)(C)O)nc(OC[C@H](N)c3ccccc3)cc21` [GSK943949A], the IC50 in data set [1] lay within 24 to 100 µM.

With `CCn1c(-c2nonc2N)nc2c(C#CC(C)(C)O)nc(O[C@@H](CN)c3ccccc3)cc21` [GSK1007102B], in data set [3], the “potentiation of IPA by isoniazid, Msmeg” value is reported as “did not potentiate” and the “potentiation with a sub-MIC50 dose of meropenem to inhibit Msmeg growth” value is on record as “the most potent”. Besides, the half-maximal inhibitory concentration (IC50) in data set [1] lay within 24 to 100 µM. Besides, in data set [5], the “activity against Mtb alone” value is listed as “able to attenuate the growth” and the “activity against Mtb with sub-MIC50 dose of meropenem” value is on record as “activity was shifted”.

As for `CCn1c(-c2nonc2N)nc2cncc(CNC3CCNCC3)c21` [SB-747651A], the PknB inhibitory activity result on PknB 1–331 is “no inhibitory activity”.

For orientation: IC50 means the concentration at which inhibition is half-maximal.

The values above are taken from publication PMC6648700 (Molecular pharmaceutics, 2018).
